Counter-ions that a name gives are not always drawn. Like-named read-outs stand apart in the source and are kept apart here.
What was measured:
[1] = target: T1, FGF14:Nav1.6 C-tail complex (Homo sapiens, UniProt Q92915+Q9UQD0); assay: Split-luciferase complementation assay (LCA) in Clone V double stable HEK293 cells; format: cell-based
T1 construct: polymerase chain reaction (PCR) amplification of the FGF14 open reading frame (nt 1–855); C-terminal fragment of Nav1.6 (amino acids 1763–1976) fused with CD4ΔC-tail (amino acids 1–395); expressed in transfected cells
T1 sequence (Q92915 1-252 isoform Q92915-2): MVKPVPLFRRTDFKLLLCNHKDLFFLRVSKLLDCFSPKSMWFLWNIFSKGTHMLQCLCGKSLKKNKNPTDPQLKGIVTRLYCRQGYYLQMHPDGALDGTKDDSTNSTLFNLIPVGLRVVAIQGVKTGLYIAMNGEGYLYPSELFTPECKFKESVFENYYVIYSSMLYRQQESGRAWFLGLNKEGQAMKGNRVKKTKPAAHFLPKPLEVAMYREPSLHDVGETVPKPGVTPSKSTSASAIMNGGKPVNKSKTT
T1 sequence (Q9UQD0 1763-1976 limits assumed): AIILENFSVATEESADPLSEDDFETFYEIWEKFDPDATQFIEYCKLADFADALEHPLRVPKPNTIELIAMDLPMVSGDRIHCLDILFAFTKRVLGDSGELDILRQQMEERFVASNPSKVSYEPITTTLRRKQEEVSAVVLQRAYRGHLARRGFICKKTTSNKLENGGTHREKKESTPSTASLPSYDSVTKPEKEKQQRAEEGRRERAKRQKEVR

[2] = target: full-length P. pyralis luciferase (Photinus pyralis, UniProt P08659, K549A/L550V/N119G/N50D/S548I); format: cell-based
Sequence of full-length P. pyralis luciferase (P08659 whole entry N50D/N119G/S548I/K549A/L550V, looked up): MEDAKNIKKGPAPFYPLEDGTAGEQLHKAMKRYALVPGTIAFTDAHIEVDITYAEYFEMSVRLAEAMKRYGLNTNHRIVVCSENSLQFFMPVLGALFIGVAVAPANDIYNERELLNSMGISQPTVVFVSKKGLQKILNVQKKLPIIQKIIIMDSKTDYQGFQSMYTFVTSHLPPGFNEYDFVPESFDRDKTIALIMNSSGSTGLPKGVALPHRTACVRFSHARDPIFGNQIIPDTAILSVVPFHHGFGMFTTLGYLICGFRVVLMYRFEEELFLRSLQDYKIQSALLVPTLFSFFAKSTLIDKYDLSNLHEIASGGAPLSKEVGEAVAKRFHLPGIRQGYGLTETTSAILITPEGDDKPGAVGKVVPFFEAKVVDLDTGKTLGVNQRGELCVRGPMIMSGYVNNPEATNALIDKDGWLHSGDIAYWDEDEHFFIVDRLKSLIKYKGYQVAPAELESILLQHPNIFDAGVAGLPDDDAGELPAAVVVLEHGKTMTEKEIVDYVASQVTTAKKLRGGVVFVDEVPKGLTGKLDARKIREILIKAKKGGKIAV

Clone V cells = settings: human
in vitro = settings: human
[3] = CC_NCI screening, biological replicate Set 1, normalized to on-plate 0.3% DMSO controls
[4] = CC_NCI screening, biological replicate Set 1, normalized to on-plate 0.3% DMSO controls (n=16 per plate)
[5] = CC_NCI screening, biological replicate Set 2, normalized to on-plate 0.3% DMSO controls
[6] = CC_NCI screening, biological replicate Set 2, normalized to on-plate 0.3% DMSO controls (n=16 per plate)
[7] = average of Set 1 and Set 2, normalized to 0.3% DMSO controls
[8] = CC_NCI screening, normalized to on-plate 0.3% DMSO controls

Structure (SMILES): CS(=O)(=O)OCCCCOS(C)(=O)=O [Busulfan]
- Split Luciferase Assay Z-score Set 1 [1, 3]: -0.50
- Split Luciferase Assay % Lum Set 1 [1, 4]: 93.82%
- Split Luciferase Assay Z-score Set 2 [1, 5]: 1.01
- Split Luciferase Assay %Lum Set 2 [1, 6]: 112.35%
- Split Luciferase Assay %Lum Avg [1, 7]: 103.09%
- Luciferase Assay % Lum (full-length luciferase counter-screen) [2, 8]: 97.98%
- Luciferase Assay Z-score (full-length luciferase counter-screen) [2, 8]: -0.26
- Toxicity Assay Z-score (CTB cell viability) (Clone V cells; 16 h, 30 µM): 0.92
- viability at 16 h, 30 µM (in vitro; Clone V cells): 107%

Structure (SMILES): Oc1cccc(-c2nc(N3CCOCC3)c3oc4ncccc4c3n2)c1 [PI-103]
- Split Luciferase Assay Z-score Set 1 [1, 3]: 0.91
- Split Luciferase Assay % Lum Set 1 [1, 4]: 111.21%
- Split Luciferase Assay Z-score Set 2 [1, 5]: -0.43
- Split Luciferase Assay %Lum Set 2 [1, 6]: 94.67%
- Split Luciferase Assay %Lum Avg [1, 7]: 102.94%
- Luciferase Assay Z-score (full-length luciferase counter-screen) [2, 8]: 0.79
- Toxicity Assay Z-score (CTB cell viability) (Clone V cells; 16 h, 30 µM): 2.64
- viability at 16 h, 30 µM (in vitro; Clone V cells): 119%

Structure (SMILES): C1CN1c1nc(N2CC2)nc(N2CC2)n1 [Triethylenemelamine]
- Split Luciferase Assay % Lum Set 1 [1]: 118.82%
- Split Luciferase Assay %Lum Avg [1]: 117.67%
- Split Luciferase Assay %Lum Set 2 [1]: 116.51%
- Split Luciferase Assay Z-score Set 1 [1]: 1.52
- Split Luciferase Assay Z-score Set 2 [1]: 1.34
- Luciferase Assay % Lum (full-length luciferase counter-screen) [2]: 108.47%
- Luciferase Assay Z-score (full-length luciferase counter-screen) [2]: 1.08
- Toxicity Assay Z-score (CTB cell viability) (Clone V cells): 0.82
- viability (in vitro): 106%

Structure (SMILES): CC[C@]1(O)C[C@@H]2CN(CCc3c([nH]c4ccccc34)[C@@](C(=O)OC)(c3cc4c(cc3OC)N(C)[C@H]3[C@@](O)(C(=O)OC)[C@H](OC(C)=O)[C@]5(CC)C=CCN6CC[C@]43[C@@H]65)C2)C1 [Vinblastine sulfate]
- Split Luciferase Assay Z-score Set 1 [1, 3]: 9.52
- Split Luciferase Assay % Lum Set 1 [1, 4]: 217.75%
- Split Luciferase Assay Z-score Set 2 [1, 5]: 5.32
- Split Luciferase Assay %Lum Set 2 [1, 6]: 165.41%
- Split Luciferase Assay %Lum Avg [1, 7]: 191.58%
- Luciferase Assay % Lum (full-length luciferase counter-screen) [2, 8]: 109.75%
- Luciferase Assay Z-score (full-length luciferase counter-screen) [2, 8]: 1.25
- Toxicity Assay Z-score (CTB cell viability) (Clone V cells; 16 h, 30 µM): 1.05
- viability at 16 h, 30 µM (in vitro): 108%

Structure (SMILES): CC1(C)CNc2cc(NC(=O)c3cccnc3NCc3ccncc3)ccc21 [MOTESANIB]
- Split Luciferase Assay Z-score Set 1 [1, 3]: -1.77
- Split Luciferase Assay % Lum Set 1 [1, 4]: 78.05%
- Split Luciferase Assay Z-score Set 2 [1, 5]: -0.86
- Split Luciferase Assay %Lum Set 2 [1, 6]: 89.47%
- Split Luciferase Assay %Lum Avg [1, 7]: 83.76%
- Luciferase Assay % Lum (full-length luciferase counter-screen) [2, 8]: 76.36%
- Luciferase Assay Z-score (full-length luciferase counter-screen) [2, 8]: -3.03
- Toxicity Assay Z-score (CTB cell viability) (Clone V cells; 16 h, 30 µM): -0.04
- viability at 16 h, 30 µM (in vitro; Clone V cells): 99.7%

Structure (SMILES): CN(Cc1cnc2nc(N)nc(N)c2n1)c1ccc(C(=O)N[C@@H](CCC(=O)O)C(=O)O)cc1 [Methotrexate]
- Split Luciferase Assay Z-score Set 1 [1, 3]: 0.73
- Split Luciferase Assay % Lum Set 1 [1, 4]: 109.04%
- Split Luciferase Assay Z-score Set 2 [1, 5]: 0.24
- Split Luciferase Assay %Lum Avg [1, 7]: 106.01%
- Luciferase Assay % Lum (full-length luciferase counter-screen) [2, 8]: 94.27%
- Luciferase Assay Z-score (full-length luciferase counter-screen) [2, 8]: -0.73
- Toxicity Assay Z-score (CTB cell viability) (Clone V cells; 16 h, 30 µM): 0.27
- viability at 16 h, 30 µM (in vitro; Clone V cells): 102%

Reference: article PMC6858373 (Scientific Reports, 2019)
